Holding throughout (assay type): cell-based
Assay [1] addresses T1, TuRDL (Tetranychus urticae, UniProt E3WEB3).
T1 construct: gene Rdl; homomeric
T1 sequence (E3WEB3 18-827): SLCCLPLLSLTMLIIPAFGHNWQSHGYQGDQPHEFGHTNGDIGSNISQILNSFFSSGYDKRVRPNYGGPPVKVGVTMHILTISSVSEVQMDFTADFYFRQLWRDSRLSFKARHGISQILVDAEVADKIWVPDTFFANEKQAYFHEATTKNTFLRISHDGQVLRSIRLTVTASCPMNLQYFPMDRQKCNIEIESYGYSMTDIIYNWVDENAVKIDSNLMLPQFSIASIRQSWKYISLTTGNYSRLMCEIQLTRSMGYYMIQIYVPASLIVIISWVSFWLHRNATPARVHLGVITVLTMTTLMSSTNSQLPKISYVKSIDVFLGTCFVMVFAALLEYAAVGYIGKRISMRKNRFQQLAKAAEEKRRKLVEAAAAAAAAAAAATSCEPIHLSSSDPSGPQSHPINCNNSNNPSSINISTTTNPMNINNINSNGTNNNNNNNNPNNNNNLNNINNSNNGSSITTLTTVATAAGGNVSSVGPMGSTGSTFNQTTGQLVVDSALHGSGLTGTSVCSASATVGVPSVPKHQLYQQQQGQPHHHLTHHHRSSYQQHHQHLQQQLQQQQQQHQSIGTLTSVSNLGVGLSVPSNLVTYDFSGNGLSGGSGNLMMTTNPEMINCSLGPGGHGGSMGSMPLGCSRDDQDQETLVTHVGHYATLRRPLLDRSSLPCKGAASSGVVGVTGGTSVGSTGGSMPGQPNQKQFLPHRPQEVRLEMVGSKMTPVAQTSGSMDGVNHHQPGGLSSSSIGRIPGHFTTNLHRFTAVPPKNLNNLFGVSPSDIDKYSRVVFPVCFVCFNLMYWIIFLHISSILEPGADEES
In words: two-electrode voltage clamp, inhibition of GABA-induced current in Xenopus oocytes. On the technique in general: In two-electrode clamp one electrode senses voltage and the other passes current.

The target in assay [2] is T2, LsRDL (Laodelphax striatellus, UniProt Q0ECT5).
T2 construct: homomeric
T2 sequence (Q0ECT5 23-487): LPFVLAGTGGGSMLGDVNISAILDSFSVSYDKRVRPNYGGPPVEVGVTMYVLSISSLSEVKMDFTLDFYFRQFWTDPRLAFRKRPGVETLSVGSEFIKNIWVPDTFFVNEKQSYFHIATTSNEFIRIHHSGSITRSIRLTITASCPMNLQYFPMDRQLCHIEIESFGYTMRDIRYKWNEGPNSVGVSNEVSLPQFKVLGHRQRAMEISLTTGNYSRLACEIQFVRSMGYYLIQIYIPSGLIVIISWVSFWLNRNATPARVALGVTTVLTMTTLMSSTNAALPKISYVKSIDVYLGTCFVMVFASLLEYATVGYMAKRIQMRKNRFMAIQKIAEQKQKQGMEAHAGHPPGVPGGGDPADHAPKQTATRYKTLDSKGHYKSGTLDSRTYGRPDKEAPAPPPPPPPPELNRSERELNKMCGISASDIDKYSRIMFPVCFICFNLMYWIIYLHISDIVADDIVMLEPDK
The assay is described as above.

The target of assay [3] is T3, DmRDL (Drosophila melanogaster, UniProt P25123, G335M).
T3 construct: gene Rdl; homomeric
T3 sequence (P25123 45-606 G335M): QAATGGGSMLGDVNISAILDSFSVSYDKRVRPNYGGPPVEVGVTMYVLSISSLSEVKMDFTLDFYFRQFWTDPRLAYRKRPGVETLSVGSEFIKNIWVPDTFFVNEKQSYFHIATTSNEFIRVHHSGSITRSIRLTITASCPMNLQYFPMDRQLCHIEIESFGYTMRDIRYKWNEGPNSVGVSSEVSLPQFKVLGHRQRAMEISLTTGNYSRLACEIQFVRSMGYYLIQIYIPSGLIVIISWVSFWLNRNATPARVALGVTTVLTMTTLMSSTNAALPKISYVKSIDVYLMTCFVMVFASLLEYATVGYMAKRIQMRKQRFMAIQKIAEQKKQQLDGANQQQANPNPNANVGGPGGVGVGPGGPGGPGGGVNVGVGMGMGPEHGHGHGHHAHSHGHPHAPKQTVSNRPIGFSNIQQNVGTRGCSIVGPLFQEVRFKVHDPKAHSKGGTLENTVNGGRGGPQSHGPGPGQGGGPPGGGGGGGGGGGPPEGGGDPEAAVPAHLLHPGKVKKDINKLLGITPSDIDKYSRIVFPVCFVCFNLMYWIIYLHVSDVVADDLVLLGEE
The assay is described as above.

Assay [4] deals with T4, AmRDL (Apis mellifera, UniProt A0A168SJP2).
T4 construct: homomeric
T4 sequence (A0A168SJP2 19-477): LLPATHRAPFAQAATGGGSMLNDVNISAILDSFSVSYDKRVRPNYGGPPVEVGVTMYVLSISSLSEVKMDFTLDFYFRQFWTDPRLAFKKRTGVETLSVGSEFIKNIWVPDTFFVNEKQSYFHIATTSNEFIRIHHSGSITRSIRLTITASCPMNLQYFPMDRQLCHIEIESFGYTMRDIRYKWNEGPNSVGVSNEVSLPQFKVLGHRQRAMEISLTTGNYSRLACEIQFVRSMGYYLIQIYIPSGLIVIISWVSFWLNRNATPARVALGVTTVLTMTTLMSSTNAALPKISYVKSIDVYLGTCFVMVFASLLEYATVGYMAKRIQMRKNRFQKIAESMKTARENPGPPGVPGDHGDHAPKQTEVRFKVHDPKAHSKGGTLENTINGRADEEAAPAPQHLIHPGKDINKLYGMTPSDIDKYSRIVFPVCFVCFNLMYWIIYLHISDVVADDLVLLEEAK
Described as above.

In assay [5] the target is T5, DmRDL (Drosophila melanogaster, UniProt P25123).
T5 construct: gene Rdl; homomeric
T5 sequence (P25123 45-606): T3 sequence (P25123 45-606 G335M) with M291G
The assay is described as above.

The target in assay [6] is T6, CsRDL (Chilo suppressalis, UniProt E2IKR3).
T6 construct: homomeric channel
T6 sequence (E2IKR3 27-496): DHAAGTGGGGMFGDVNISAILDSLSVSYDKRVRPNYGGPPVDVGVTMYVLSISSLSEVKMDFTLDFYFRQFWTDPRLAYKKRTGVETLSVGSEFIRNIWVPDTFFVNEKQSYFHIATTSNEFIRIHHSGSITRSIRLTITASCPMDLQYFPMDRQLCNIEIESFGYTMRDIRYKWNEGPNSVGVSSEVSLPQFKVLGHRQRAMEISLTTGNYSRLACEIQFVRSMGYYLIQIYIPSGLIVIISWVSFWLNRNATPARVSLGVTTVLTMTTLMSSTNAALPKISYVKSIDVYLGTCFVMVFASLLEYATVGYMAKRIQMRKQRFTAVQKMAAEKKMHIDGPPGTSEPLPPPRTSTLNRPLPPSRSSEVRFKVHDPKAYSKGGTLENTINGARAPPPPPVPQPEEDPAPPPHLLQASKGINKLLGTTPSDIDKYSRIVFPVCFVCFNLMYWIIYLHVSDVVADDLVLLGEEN
The assay is described as above.

Assay [7] has as its target T1, TuRDL. As to the kind of experiment: two-electrode voltage clamp, GABA-induced current in Xenopus oocytes.
For assay [8], the target named is T4, AmRDL. Described as above.
Assay [9] has as its target T6, CsRDL. The assay is described as above.
The target in assay [10] is T2, LsRDL. Described as above.

Numbering of substitutions follows the chain as printed. Some results are limits rather than exact numbers.

For the molecule `Cc1cc(C2=NOC(c3cc(Cl)cc(Cl)c3)(C(F)(F)F)C2)ccc1C(=O)NCC(=O)NCC(F)(F)F` (centres unmarked) [fluralaner], the concentration for half-maximal inhibition (IC50) is 2.53 nM in [1]; 3.27 nM in [2]; greater than 10000 nM in [3]; 9.38 nM in assay [4]; 6.96 nM in assay [5]; 4.2 nM in assay [6].
In turn, `N#Cc1nn(-c2c(Cl)cc(C(F)(F)F)cc2Cl)c(N)c1[S+]([O-])C(F)(F)F` (centres unmarked) [fipronil] showed an IC50 in assay [6] of 10 nM.
For the molecule `NCCCC(=O)O` [GABA], the EC50 in assay [7] worked out at 295000 nM; in assay [8], 13400 nM; in assay [9] it was 18100 nM; in assay [10], 31900 nM.

Broadly, the IC50 is the midpoint of a concentration-inhibition curve. A low value points to inhibition by little substance. By EC50 is commonly meant the concentration at which the effect is half-maximal.

Values taken from PMC10337980 (PLOS Genetics, 2023).
